Like-named read-outs stand apart in the source and are kept apart here.
Columns and labels:
N588K-hERG = N588K-hERG (Homo sapiens, UniProt Q12809, N588K)
Experimental: Currents were measured with a two-step voltage protocol; a first step to +20 mV for 3 seconds to fully activate the channels and a second step to a negative membrane potential, usually −110 mV (but see below for variations). […]

N588E-hERG = N588E-hERG (Homo sapiens, UniProt Q12809, N588E)
Experimental: (§1) CHO cells were cultured in D-ME/F12 with 10% FBS and maintained at 37° C. in 5% CO2. Cells were studied at least 24 h after being plated on microscope coverslips. Mutant hERG constructs were generated using the Megaprimer PCR method. […] Blank CHO cells were plated onto sterilised glass coverslips. After 24 h, the cells were transfected with mutant hERG constructs using PolyFect Transfection Reagent (Qiagen) according to the manufacturer's instructions. After transfection, the cells were incubated at 37° C. for a minimum of 1 day prior to electrophysiological study. Successfully transfected cells, identified by the expression of eGFP, were studied using the whole-cell configuration of the patch clamp technique.
(§2) Borosilicate glass tubing patch pipettes, with resistances of 1-4 MΩ when filled with internal solution, were made using a vertical 2-stage puller (PP-830; Narishige, Japan). The internal solution contained (in mM) 120 potassium gluconate, 20 KCl, 1.5 MgATP, 5 EGTA and 10 HEPES (pH 7.3 with KOH). […] Currents were amplified (Axopatch 200B amplifier; Molecular Devices, Sunnyvale, Calif.) and digitised (DigiData 1200; Molecular Devices) before storage on a personal computer. Capacitance current transients were electronically subtracted, and series resistance compensation was ˜80% for all experiments. Current signals were digitised at 5 kHz and low-pass filtered at 2 KHz. Some current traces were leak-subtracted off-line. Acquisition was performed using pClamp software.
(§3) Currents were measured with a two-step voltage protocol; a first step to +20 mV for 3 seconds to fully activate the channels and a second step to a negative membrane potential, usually −110 mV (but see below for variations). During this second voltage step hERG channels quickly recover from inactivation and proceed to deactivate.
(§4) Drug block was calculated as I[drug]/Icontrol, with all currents measured at the end of the activating step. […] In this way current was measured at the same time point for all cells.
(§5) Voltage-protocols were repeated at 0.1 Hz. Control currents were recorded 3-5 minutes after patch rupture, i.e. the time take for current levels to stabilise at a steady state level. […] Recording continued until a new steady state block was reached (typically 2-4 minutes). Between 2 and 4 doses of drug were applied to each cell with most experiments completed within 20 minutes.
(§6) Initial data analysis was performed using the Clampfit module of the pClamp 9.0 software. Subsequent data analysis and preparation of data for figures were performed with Mathematica 6 (Wolfram Technologies). All data are expressed as mean ±SEM (n) and statistical significance (P<0.05) was determined using paired t-tests.

WT-hERG = WT-hERG (Homo sapiens, UniProt Q12809)
Experimental: as §1, §2, §3, §4, §5, §6

| SMILES | IC50 (N588K-hERG) [µM] | IC50 (N588E-hERG) [µM] | h (Hill plot), N588E (N588E-hERG) | IC50 (WT-hERG) [µM] | h (Hill plot), WT-hERG (WT-hERG) | h (Hill plot), N588E (N588E-hERG; human) | h (Hill plot), WT-hERG (WT-hERG; human) |
| --- | --- | --- | --- | --- | --- | --- | --- |
| CC(C)NCC(O)c1ccc(NS(C)(=O)=O)cc1 (racemic) [dl-Sotalol] | 1390 ± 266 | 586 ± 179 | h = 0.8 | 516 ± 35.5 | h = 0.9 |  |  |
| COc1cc(N)c(Cl)cc1C(=O)NC1CCN(CCCOc2ccc(F)cc2)CC1OC (stereo not drawn) [Cisapride] |  |  |  |  |  | h = 0.8 | h = 1.0 |
| C1CCC(C(CC2CCCCN2)C2CCCCC2)CC1 (stereo not drawn) [Perhexiline] |  |  |  |  |  | h = 0.8 | h = 1.1 |

Reference: US20110151484A1, “hERG MUTANTS AND USES THEREOF” (priority 2008, published 2011)
